Tests used:
[1] = test system: CEB MRSA; assay: Comparative in vivo protection antibody versus vancomycin, renal quantification, Assay II; set-up: species or system Staphylococcus aureus; settings: antibody 500 μg
Method: This assay was performed in the same way as the previous one, but, with a lower infective dose (7.0×10^6 bacteria), with the group 1 being treated with 500 micrograms of purified monoclonal antibody; group 2 being treated with vancomycin (150 micrograms, intramuscular route, 12/12 hours; 5 doses); group 3 being treated with vancomycin+500 micrograms of monoclonal antibody; and group 4 being control (non-treated animals).

[2] = test system: CEB-MRSA; assay: Comparative in vivo protection antibody versus vancomycin, renal quantification, Assay I; set-up: species or system Staphylococcus aureus
Method: Four groups of female 8-week Balb/C mice (4 animals per group) received an infective dose of 6.0×10^7 bacteria (CEB-MRSA) by intraperitoneal route. The animals received doses of purified monoclonal antibody (MAB), vancomycin, MAB+vancomycin, and negative control, according to the groups below:
group 1: MAB (400 micrograms) (first day)
group 2: vancomycin (150 micrograms, intramuscular route, 12/12 hours)
group 3: vancomycin+MAB (350 micrograms) (1 day after infection)
The first doses of antibody and vancomycin were administered 4 hours after the administration of the infective dose. The animals were subjected to euthanasia in the fourth day, and the kidneys were aseptically removed and subjected to renal qualification, according to what was previously described.
In this study, the animals were infected and the administration of the antimicrobial or monoclonal antibodies was started just after four hours of infection. The study was conducted with three distinct groups: one treated with vancomycin, other treated with monoclonal antibodies, and a third one with simultaneous administration of antimicrobial+antibodies. Vancomycin doses were adjusted and administered in a way similar to the cases of infections in humans (500 mg every 12 hours).

CN[C@H](CC(C)C)C(=O)N[C@H]1C(=O)N[C@@H](CC(N)=O)C(=O)N[C@H]2C(=O)N[C@H]3C(=O)N[C@H](C(=O)N[C@H](C(=O)O)c4cc(O)cc(O)c4-c4cc3ccc4O)[C@H](O)c3ccc(c(Cl)c3)Oc3cc2cc(c3O[C@@H]2O[C@H](CO)[C@@H](O)[C@H](O)[C@H]2O[C@H]2C[C@](C)(N)[C@H](O)[C@H](C)O2)Oc2ccc(cc2Cl)[C@H]1O [vancomycin]
bacteria recovered from kidneys, mean of group ([1]; Assay II: 7.0×10^6 bacteria CEB MRSA, vancomycin every 12 hours (5 doses), antibody (500 μg)+vancomycin): 720 bacteria
reduction of bacteria in kidneys versus non-treated animals ([1]; Assay II: lower infective dose 7.0×10^6 bacteria CEB MRSA, vancomycin 5 doses, combination): 35 times
reduction in the quantity of bacteria present in the kidneys versus non-treated animals ([2]; Assay I: 6.0×10^7 bacteria CEB MRSA IP, treatment from 4 hours after infection, three days after infection, vancomycin every 12 hours (5 doses)): around 15 times
bacteria recovered from kidneys, mean of group ([2]; Assay I: 6.0×10^7 bacteria CEB MRSA, antibody 400 μg, vancomycin 5 doses, antibody (300 μg)+vancomycin): 172,250 bacteria

Source: US8940304B2, “Monoclonal antibodies against the PBP2-A protein and homologous sequences for the treatment of infections by and immunodiagnostics of bacteria of the firmicutes phylum” (priority 2009, dated 2015)
